Read-outs that look alike come from different tables or passages of the source.
How the values were obtained:
[1] = target: Fasciola hepatica TIM (FhTIM) (Fasciola hepatica, UniProt S4UI50); test: Inhibition of recombinant FhTIM, coupled enzyme assay; assay type: biochemical
Outline: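 E. coli-expressed FhTIM preincubated with compound 1 h at 37 °C in 100 mM triethanolamine, 10 mM EDTA, pH 7.4, 10% DMSO. Aliquot diluted into coupled assay (1 mM glyceraldehyde-3-phosphate, 0.2 mM NADH, α-glycerol phosphate dehydrogenase, pH 7.4) with NADH decrease at 340 nm, 38 °C. Triplicate, two independent experiments.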

[2] = system: newly excysted juvenile (NEJ) F. hepatica; test: In vitro NEJ treatment; assay type: cell-based, Fasciola hepatica; details: for IC50: Fasciola hepatica, NEJ
Description: F. hepatica metacercariae were acquired from DILAVE, MGAP, Uruguay. NEJ were obtained by in vitro excystement as previously described with minor modifications. Briefly, metacercariae were incubated with 1% sodium hypochlorite for 5 min at room temperature to remove the outer cyst wall and then washed exhaustively with PBS 200 U/mL Penicillin G sulfate, […] streptomycin sulfate, 500 ng/mL amphotericin B, 10 mM HEPES, counted and divided into groups of around 20 parasites that were transferred to 12 wells tissue culture plates. Parasites were maintained at 37 °C, 5% CO2 in modified Basch’s medium. At day 1, compounds were added at the indicated concentrations and 0.5% DMSO was added to control groups; each condition was tested in duplicate. NEJ behavior was monitored under a light microscope (Olympus BX41), every day each well was recorded for a minute in order to assess parasite motility and registered using the following score: 3- normally active; 2- reduced activity (sporadic movement); 1- immotile (dead)[48].

[3] = system: murine macrophages and bovine sperm; test: Non-specific toxicity against mammalian cells; assay type: cell-based; details: for Toxicity mammalian cells: selectivity index parasite vs. mammalian cells, fixed doses 25 and 100 µM
Description: As a proof of concept, we tested the best FhTIM inactivators against F. hepatica and S. mansoni parasites. Also, we use compound 191 as a non-inhibitor which has a closely related structure to that of compound 187. Some compounds were able to kill 100% of the newly excysted juvenile (NEJ) F. hepatica within 4 to 48 h (Table 2 and Fig. 2). […] In parallel, these compounds were assayed to characterize their non-specific toxicity against murine macrophages and bovine sperm. Both models are recommended by FDA as an in vitro prediction of toxicology.
J774.1 murine macrophage cells (ATCC, USA) were grown in DMEM culture milieu containing 4 mM glutamine and supplemented with 10% FCS[20]. The cells were seeded in a 96-well plate (5×10^4 cells in 200 µL culture medium) and incubated at 37 °C in a 5% CO2 atmosphere for 48 h, to allow cell adhesion prior to drug testing. Afterward, cells were exposed for 48 h to the compounds (25–400 µM) or the vehicle for control (0.4% DMSO), and additional controls (cells in medium) were used in each test. Cell viability was then assessed by measuring the mitochondria-dependent reduction of MTT (3-(4,5-dimethylthiazol-2-yl)-2,5-diphenyltetrazolium bromide) to formazan. For this purpose, MTT in sterile PBS (0.2% glucose), pH 7.4, was added to the macrophages to achieve a final concentration of 0.1 mg/mL, and the cells were incubated at 37 °C for 3 h. After removing the medium, formazan crystals were dissolved in 180 µL of DMSO and 20 µL of MTT buffer (0.1 M glycine, 0.1 M NaCl, 0.5 mM EDTA, pH 10.5), and the absorbance at 560 nm was measured. The IC50 was defined as the drug concentration at which 50% of the cells were viable, relative to the control (no drug added), and was determined by analysis using OriginLab8.5® sigmoidal regression (% of viable cells vs. the logarithm of the compound concentration). Tests were performed in triplicate.
Semen samples were obtained from a healthy fertile Hereford bull and kept frozen in 0.5 mL straws (extended in Andromed, Minitube, Germany[47]) under liquid nitrogen until use. The semen used belonged to a single freezing batch that was obtained during a regular collection schedule with an artificial vagina. Samples from three straws were thawed and a sperm pool was prepared in PBS at a concentration of 40 million spermatozoa per mL, then 50 μL of this sperm suspension was carefully mixed with 50 μL of compounds diluted to 100, 50, 25, 12.5 and 6.25 μM or with 1% DMSO in control experiments. Each condition was assayed by duplicate in 96-well plates and controls were assayed by triplicate. Plates were incubated at 37 °C for 1 h with moderate shaking. The motility analysis was carried out using a CASA (Computer Assisted Semen Analyzer) system Androvision (Minitube, Tiefenbach, Germany) with an Olympus BX 41 microscope (Olympus, Japan) equipped with a warm-stage at 37 °C. Each sample (10 μL) was placed onto a Makler Counting Chamber (depth 10 μm, Sefi-Medical Instruments, Israel) and the following parameters were evaluated: percentage of total motile spermatozoa (motility >5 μm/s) and velocity curved line (VCL, >24 μm/s). At least 400 spermatozoa were analyzed from each sample from at least four microscope fields.

[4] = Figure 1, ranges of inhibitory activity, read-out: IC50 range
[5] = recombinant FhTIM, 1 h incubation with compound at 37 °C, read-out: IC50

Chain of Fasciola hepatica TIM (FhTIM) (S4UI50 entry or part of it): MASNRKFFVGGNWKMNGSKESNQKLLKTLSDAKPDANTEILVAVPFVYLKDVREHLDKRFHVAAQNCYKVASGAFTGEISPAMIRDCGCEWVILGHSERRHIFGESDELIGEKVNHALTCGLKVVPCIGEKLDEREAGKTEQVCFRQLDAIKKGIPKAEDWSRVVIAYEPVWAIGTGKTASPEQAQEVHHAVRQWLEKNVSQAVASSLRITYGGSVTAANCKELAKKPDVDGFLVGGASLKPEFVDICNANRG

What does the source list for `Cc1ccc(-c2nsc(S(=O)(=O)c3ccc(C)cc3)n2)cc1` [Compound 187]?
IC50 [1, 4]: < 50 µM; IC50 ([1]; Table 1S, screening of 340 compounds in FhTIM, table head prints no unit, µM per b8/b9, read-out: IC50): < 25 µM; IC50 [1, 5]: 4 ± 0.2 µM; IC50 ([2]; incubation time 4 h): 3 ± 0.5 µM; toxicity to mammalian cells in words ([3]; herein): non-toxic; Toxicity mammalian cells [3]: NT (when the IC50 vs. the parasite was at least 10 times less than the IC50 vs. the mammalian cells, we considered these compounds as non-toxic (NT))

What does the source list for `CSc1nc2cc(Cl)c(Oc3cccc(Cl)c3Cl)cc2[nH]1` [Compound 1278, triclabendazole, reference compound]?
IC50 [1, 4]: < 50 µM; IC50 [1, 5]: 7 ± 1 µM; IC50 ([2]; incubation time 72 h): > 50 µM; concentration of effect against juvenile and adult forms of F. hepatica ([2]; both forms, at 48 h): more than 50 µM; Toxicity mammalian cells [3]: NT (when the IC50 vs. the parasite was at least 10 times less than the IC50 vs. the mammalian cells, we considered these compounds as non-toxic (NT))
